Laboratory results reported in publication PMC3494675, “Structure-Function Analysis of the Glioma Targeting NFL-TBS.40-63 Peptide Corresponding to the Tubulin-Binding Site on the Light Neurofilament Subunit” (PLoS ONE, 2012).
Peptide text beside a SMILES is read from it. * marks the point of attachment. Biotin = O=C1N[C@H]2[C@H](CS[C@H]2CCCCC(=O)*)N1

Assays:
[1] = system: T98G human glioblastoma cells; test: Peptide incorporation into T98G cells (immunocytochemistry, cell counting); format: cell-based; conditions: 6 hours; for Peptide incorporation (% of cells): T98G cells, 10 µM biotinylated peptide, Alexa-labeled avidin/streptavidin fluorescence microscopy, minimum 200 cells per experiment, mean ± S.E.M., triplicated
Protocol: (§1) Cells containing the biotinylated peptide were detected using Alexa-labeled avidin (green fluorescence) and those displaying a normal or a destroyed MT network were detected with an anti-tubulin antibody (red fluorescence) ( Figure 1A-B ). Then, we counted a minimum of 200 cells per slide containing or not the peptide, and with a normal or destroyed microtubule network ( Figure 1C ). As illustrated on Figure 1A glioblastoma cells contain a rich MT network. […] Cells were plated on cover slips and cultured in media containing biotinylated peptides (10 μM) for 6 hours. […] The cells were then incubated during 10 min in a 0.5% triton X-100 permeabilization solution, and washed 3 times in PBS. Next, they were incubated in a blocking solution (PBS 5% BSA) for 15 min, then incubated with mouse anti-ß-tubulin antibody (Sigma) 1/200 overnight. Tubulin and biotinylated peptides were localized using respectively Alexa 568 nm anti-mouse antibody and streptavidin Alexa 488 nm (Molecular Probes) 1/200 for 1 hour, followed by washing in PBS. […] Sigma) for 5 min, washed twice with PBS, then cover slips were mounted with an antifading solution. Observations were performed with an Olympus confocal microscope (BX50) using Fluoview.3.1. Software or a Leica DMI6000 inverted microscope and analyzed with Metamorph 7.1.7.0. software. We counted cells containing the peptide and cells displaying a destroyed MT network. Experiments were repeated at least three times, and a minimum of 200 cells was scored during each experiment.

[2] = system: T98G human glioblastoma cells; test: Disintegration of the microtubule network in T98G cells (anti-tubulin immunostaining, cell counting); format: cell-based; conditions: 6 hours; for Disintegration of MT (% of cells): T98G cells, 10 µM biotinylated peptide, anti-tubulin immunostaining, minimum 200 cells per experiment, mean ± S.E.M., triplicated
Protocol: as §1

## CC(C)C[C@H](NC(=O)[C@H](CO)NC(=O)[C@H](CO)NC(=O)[C@H](CO)NC(=O)[C@@H](NC(=O)[C@@H]1CCCN1C(=O)[C@H](C)NC(=O)[C@H](CO)NC(=O)[C@H](Cc1ccc(O)cc1)NC(=O)[C@H](CO)NC(=O)[C@H](CO)NC(=O)[C@H](Cc1ccc(O)cc1)NC(=O)CCCC[C@@H]1SC[C@@H]2NC(=O)N[C@@H]21)C(C)C)C(=O)N[C@@H](CO)C(=O)N[C@H](C(=O)N[C@@H](CCCNC(=N)N)C(=O)N[C@@H](CCCNC(=N)N)C(=O)N[C@@H](CO)C(=O)N[C@@H](Cc1ccc(O)cc1)C(=O)N[C@@H](C)C(=O)N[C@@H](CO)C(=O)N[C@@H](CO)C(=O)N[C@@H](CO)C(=O)NCC(=O)N[C@@H](CO)C(N)=O)C(C)C [Ser19Ala] (Biotin-YSSYSAPVSSSLSVRRSYASSSGS-NH2)
[1]
  Peptide incorporation (% of cells): 5.2±0.7 % of cells
[2]
  Disintegration of MT (% of cells): 14.5±2.7 % of cells

## CC(C)C[C@H](NC(=O)[C@H](CO)NC(=O)[C@H](CO)NC(=O)[C@H](CO)NC(=O)[C@@H](NC(=O)[C@@H]1CCCN1C(=O)[C@H](C)NC(=O)[C@H](CO)NC(=O)[C@H](Cc1ccc(O)cc1)NC(=O)[C@H](CO)NC(=O)[C@H](CO)NC(=O)[C@H](Cc1ccc(O)cc1)NC(=O)CCCC[C@@H]1SC[C@@H]2NC(=O)N[C@@H]21)C(C)C)C(=O)N[C@@H](CO)C(=O)N[C@H](C(=O)N[C@@H](CCCNC(=N)N)C(=O)N[C@@H](CCCNC(=N)N)C(=O)N[C@@H](CO)C(=O)N[C@@H](Cc1ccc(O)cc1)C(=O)N[C@@H](CC(=O)O)C(=O)N[C@@H](CO)C(=O)N[C@@H](CO)C(=O)N[C@@H](CO)C(=O)NCC(=O)N[C@@H](CO)C(N)=O)C(C)C [Ser19Asp] (Biotin-YSSYSAPVSSSLSVRRSYDSSSGS-NH2)
[1]; 10 µM, immunocytochemistry, compared to original NFL-TBS.40-63
  Cell penetration / internalization in T98G cells (in words): decreased internalization
[1]
  Peptide incorporation (% of cells): 25.2±4.8 % of cells
[2]; 10 µM, immunocytochemistry
  Effect on MT network of T98G / glioma cells (in words): not altered
[2]
  Disintegration of MT (% of cells): 19.2±1.5 % of cells

## CC(C)C[C@H](NC(=O)[C@H](CO)NC(=O)[C@H](CO)NC(=O)[C@H](CO)NC(=O)[C@@H](NC(=O)[C@@H]1CCCN1C(=O)[C@H](C)NC(=O)[C@H](CO)NC(=O)[C@H](Cc1ccc(O)cc1)NC(=O)[C@H](CO)NC(=O)[C@H](CO)NC(=O)[C@H](Cc1ccc(O)cc1)NC(=O)CCCC[C@@H]1SC[C@@H]2NC(=O)N[C@@H]21)C(C)C)C(=O)N[C@@H](CO)C(=O)N[C@H](C(=O)N[C@@H](CCCNC(=N)N)C(=O)N[C@@H](CCCNC(=N)N)C(=O)N[C@@H](CO)C(=O)N[C@@H](Cc1ccc(O)cc1)C(=O)N[C@@H](CO)C(=O)N[C@@H](C)C(=O)N[C@@H](CO)C(=O)N[C@@H](CO)C(=O)NCC(=O)N[C@@H](CO)C(N)=O)C(C)C [Ser20Ala] (Biotin-YSSYSAPVSSSLSVRRSYSASSGS-NH2)
[1]
  Peptide incorporation (% of cells): 6.4±1.2 % of cells
[2]
  Disintegration of MT (% of cells): 16.4±6.4 % of cells

## CC(C)C[C@H](NC(=O)[C@H](CO)NC(=O)[C@H](CO)NC(=O)[C@H](CO)NC(=O)[C@@H](NC(=O)[C@@H]1CCCN1C(=O)[C@H](C)NC(=O)[C@H](CO)NC(=O)[C@H](Cc1ccc(O)cc1)NC(=O)[C@H](CO)NC(=O)[C@H](CO)NC(=O)[C@H](Cc1ccc(O)cc1)NC(=O)CCCC[C@@H]1SC[C@@H]2NC(=O)N[C@@H]21)C(C)C)C(=O)N[C@@H](CO)C(=O)N[C@H](C(=O)N[C@@H](CCCNC(=N)N)C(=O)N[C@@H](CCCNC(=N)N)C(=O)N[C@@H](CO)C(=O)N[C@@H](Cc1ccc(O)cc1)C(=O)N[C@@H](CO)C(=O)N[C@@H](CO)C(=O)N[C@@H](C)C(=O)N[C@@H](CO)C(=O)NCC(=O)N[C@@H](CO)C(N)=O)C(C)C [Ser21Ala] (Biotin-YSSYSAPVSSSLSVRRSYSSASGS-NH2)
[1]
  Peptide incorporation (% of cells): 55.4±5.9 % of cells
[2]
  Disintegration of MT (% of cells): 31.6±5.1 % of cells

## CC(C)C[C@H](NC(=O)[C@H](CO)NC(=O)[C@H](CO)NC(=O)[C@H](CO)NC(=O)[C@@H](NC(=O)[C@@H]1CCCN1C(=O)[C@H](C)NC(=O)[C@H](CO)NC(=O)[C@H](Cc1ccc(O)cc1)NC(=O)[C@H](CO)NC(=O)[C@H](CO)NC(=O)[C@H](Cc1ccc(O)cc1)NC(=O)CCCC[C@@H]1SC[C@@H]2NC(=O)N[C@@H]21)C(C)C)C(=O)N[C@@H](CO)C(=O)N[C@H](C(=O)N[C@@H](CCCNC(=N)N)C(=O)N[C@@H](CCCNC(=N)N)C(=O)N[C@@H](CO)C(=O)N[C@@H](Cc1ccc(O)cc1)C(=O)N[C@@H](CO)C(=O)N[C@@H](CO)C(=O)N[C@@H](CO)C(=O)N[C@@H](CO)C(=O)NCC(=O)N[C@@H](C)C(N)=O)C(C)C [Ser24Ala] (Biotin-YSSYSAPVSSSLSVRRSYSSSSGA-NH2)
[1]
  Peptide incorporation (% of cells): 44.3±6.7 % of cells
[2]
  Disintegration of MT (% of cells): 29.4±0.6 % of cells

## CC(C)C[C@H](NC(=O)[C@H](CO)NC(=O)[C@H](CO)NC(=O)[C@H](CO)NC(=O)[C@@H](NC(=O)[C@@H]1CCCN1C(=O)[C@H](C)NC(=O)[C@H](CO)NC(=O)[C@H](Cc1ccc(O)cc1)NC(=O)[C@H](CO)NC(=O)[C@H](CO)NC(=O)[C@H](C)NC(=O)CCCC[C@@H]1SC[C@@H]2NC(=O)N[C@@H]21)C(C)C)C(=O)N[C@@H](CO)C(=O)N[C@H](C(=O)N[C@@H](CCCNC(=N)N)C(=O)N[C@@H](CCCNC(=N)N)C(=O)N[C@@H](CO)C(=O)N[C@@H](Cc1ccc(O)cc1)C(=O)N[C@@H](CO)C(=O)N[C@@H](CO)C(=O)N[C@@H](CO)C(=O)N[C@@H](CO)C(=O)NCC(=O)N[C@@H](CO)C(N)=O)C(C)C [Tyr1Ala] (Biotin-ASSYSAPVSSSLSVRRSYSSSSGS-NH2)
[1]
  Peptide incorporation (% of cells): 0 % of cells
[2]
  Disintegration of MT (% of cells): 24.1±4.6 % of cells

## CC(C)C[C@H](NC(=O)[C@H](CO)NC(=O)[C@H](CO)NC(=O)[C@H](CO)NC(=O)[C@@H](NC(=O)[C@@H]1CCCN1C(=O)[C@H](C)NC(=O)[C@H](CO)NC(=O)[C@H](Cc1ccc(O)cc1)NC(=O)[C@H](CO)NC(=O)[C@H](CO)NC(=O)[C@H](Cc1ccccc1)NC(=O)CCCC[C@@H]1SC[C@@H]2NC(=O)N[C@@H]21)C(C)C)C(=O)N[C@@H](CO)C(=O)N[C@H](C(=O)N[C@@H](CCCNC(=N)N)C(=O)N[C@@H](CCCNC(=N)N)C(=O)N[C@@H](CO)C(=O)N[C@@H](Cc1ccc(O)cc1)C(=O)N[C@@H](CO)C(=O)N[C@@H](CO)C(=O)N[C@@H](CO)C(=O)N[C@@H](CO)C(=O)NCC(=O)N[C@@H](CO)C(N)=O)C(C)C [Tyr1Phe] (Biotin-FSSYSAPVSSSLSVRRSYSSSSGS-NH2)
[1]
  Peptide incorporation (% of cells): 56.3±2.8 % of cells
[2]
  Disintegration of MT (% of cells): 41.2±4.0 % of cells

## CC(C)C[C@H](NC(=O)[C@H](CO)NC(=O)[C@H](CO)NC(=O)[C@H](CO)NC(=O)[C@@H](NC(=O)[C@@H]1CCCN1C(=O)[C@H](C)NC(=O)[C@H](CO)NC(=O)[C@H](C)NC(=O)[C@H](CO)NC(=O)[C@H](CO)NC(=O)[C@H](Cc1ccc(O)cc1)NC(=O)CCCC[C@@H]1SC[C@@H]2NC(=O)N[C@@H]21)C(C)C)C(=O)N[C@@H](CO)C(=O)N[C@H](C(=O)N[C@@H](CCCNC(=N)N)C(=O)N[C@@H](CCCNC(=N)N)C(=O)N[C@@H](CO)C(=O)N[C@@H](Cc1ccc(O)cc1)C(=O)N[C@@H](CO)C(=O)N[C@@H](CO)C(=O)N[C@@H](CO)C(=O)N[C@@H](CO)C(=O)NCC(=O)N[C@@H](CO)C(N)=O)C(C)C [Tyr4Ala] (Biotin-YSSASAPVSSSLSVRRSYSSSSGS-NH2)
[1]
  Peptide incorporation (% of cells): 5.3±2.4 % of cells
[2]
  Disintegration of MT (% of cells): 24.4±4.6 % of cells
